Among the data in ChEMBL document CHEMBL1150217, “Molecular structure and activity toward DNA of baicalein, a flavone constituent of the Asian herbal medicine "Sho-saiko-to"” (J Nat Prod, 2001) are Activity values, retold here.

Calls of active or inactive are those of the source. The calls are words filed in the database; no cut-off is given here.

In one assay the test system is Calf thymus DNA. In words: Binding affinity to calf thymus DNA assessed as intercalation by agarose gel electrophoresis. In kind it is nucleic-acid assay. To be noted: Bos taurus.
Assay [1] relates to Human immunodeficiency virus. Put plainly: Inhibition of HIV integrase.

With `O=c1cc(-c2ccccc2)oc2cc(O)c(O)c(O)c12`, the outcome (in the assay with Calf thymus DNA; in assay [1]) was Active.
